# Assay results published in ChEMBL document CHEMBL3507680, “University of Dundee, Gates Library screen for HepG2 cell viability”.
# Assay: Human HepG2 cell viability assay in 384 well format
# Type: toxicity, cell-based
# Design: dose 125 nL, time 70.5 hour; cytotoxicity at 70.5 h: concentration not given beside the values
# Details: HepG2 cells, read-out: Inhibition
row,Structure (SMILES),cytotoxicity at 70.5 h
1,N#Cc1c2n(c3c(=O)[nH]cnc13)CCCC2,-6.51%
2,CSc1ccc(C(=O)C2CCCN(C(=O)Cn3cnnn3)C2)cc1 (stereo not given),-6.73%
3,CNCC(=O)NC1CC(C)(C)Cc2nc(C(C)(C)C)ncc21 (stereo not given),-18.9%
4,CCCOCCN1CCc2[nH]c(-c3ccc(OC)cc3)nc2C1,-17%
5,CN(C)S(=O)(=O)N1C[C@@H]2CC[C@H](C1)N(Cc1ccc3[nH]ccc3c1)C2,-5.61%
6,O=C(C1CNCCN1C(=O)CCOc1ccccc1)N1CCOCC1 (stereo not given),4.76%
7,COc1cccc(CN(C)C(C)c2ccco2)c1OCCn1ccnc1 (stereo not given),-6.31%
8,COCC(c1ccccn1)N(C)C(=O)c1cc(-c2ccccc2O)n[nH]1 (stereo not given),-6.79%
9,CCc1[nH]c2c(CNC(=O)C3CCCN(C)C3)cc(C)cc2c1C (stereo not given),-4.96%
10,N#Cc1cccc(OC23CCCN(CC2)C3)c1 (stereo not given),13.6%
11,NCCN1C(=O)CC[C@H]2CN(Cc3ccc4occc4c3)CC[C@H]21,-8.13%
12,Cn1ccnc1SCCNC(=O)c1cc(S(N)(=O)=O)ccc1F,-9.32%
13,COc1ccc(C(=O)N2CCN(C(=O)CCCc3cn[nH]c3)CC2)cc1,-5.64%
14,Cc1cc(C)n(C2CCN(C(=O)CN3C(=O)CSc4ccccc43)C2)n1 (stereo not given),30.3%
15,CC(=O)NCCNCC1(O)CCCN(CCC2CCCCC2)C1=O (stereo not given),-1.79%
16,O=C(O)c1cc(N2C[C@H](NC(=O)C3CCOCC3)[C@@H](C3CC3)C2)ccn1,-11.7%
17,CC(=O)N1CCc2c(nc(N(C)C)nc2NCCC2CCCCO2)C1 (stereo not given),-5.03%
18,Cc1ccc(Cl)c(NC(=O)c2cccc(CN3CC[C@H](O)C3)c2)c1,-5.5%
19,Cc1cc(NCCNc2cccnc2)nc(N)n1,12.3%
20,CN1CCC(c2n[nH]c(=O)n2-c2cccc(Cl)c2)CC1,10.8%
21,CCc1nc(C)c(CN2CCOC(Cc3cccc4ccccc34)C2)[nH]1 (stereo not given),-2.51%
22,CC(Cc1cnccn1)NC(=O)c1cccc(CC2CCNCC2)c1 (stereo not given),14%

row,Structure (SMILES),cytotoxicity at 70.5 h
1,CCCN1CCCC2(CCN(c3nccc(OC)n3)C2)C1=O (stereo not given),2.5%
2,CC1(C)OC(=O)N(CC(=O)N2CCC(c3ccccc3F)C2)C1=O (stereo not given),-3.83%
3,CN(Cc1cc2n(n1)CCN(C(=O)[C@H]1CCCO1)C2)Cc1nccs1,46.3%
4,O=C(NCc1cnn2cccnc12)C1CC(=O)N(Cc2cccnc2)C1 (stereo not given),30.6%
5,Cc1cc(C2CCC2)nc(N2CCC3(CCCN(C)C3=O)C2)n1 (stereo not given),-10.6%
6,Cn1cc(C2=CCN(CCCOc3ccc(C(N)=O)cc3)CC2)cn1,-11.2%
7,O=C(CCn1cccc1)N1CCc2[nH]nc(COc3ccccc3)c2C1,-7.09%
8,CCn1c(N)nc2cc(C(=O)NCCNc3ncccc3C)cnc21,-3.99%
9,CNC(=O)CCN(C)c1nc(-c2ccncc2)nc2c1CCNC2,-13.1%
10,Nc1nnc(CCCNc2ncnc3c2CCN(C(=O)C2CC2)C3)s1,-12%
11,CCCc1nc(C(=O)NCCCn2nnc3ccccc32)cs1,-8.53%
12,O=C(C1CNCCN1C(=O)CCOc1ccccc1)N1CCCC1 (stereo not given),-1.81%
13,Cc1cnn(CCCn2c(C)cc(C(F)(F)F)cc2=O)c1,-9.21%
14,CCn1ccc(CN(C)C(=O)CSc2nnc(N)s2)n1,-2.09%
15,Cc1nn(C)cc1-c1ccnc(N(C)Cc2noc(C(C)C)n2)n1,-2.05%
16,CCOC(=O)N[C@H]1C[C@@H](C(=O)NCCc2cccc(Cl)c2)N(C)C1,-23.6%
17,CCCc1ccc(CN2CCN(C(=O)C(C)C)[C@@H]3CS(=O)(=O)C[C@@H]32)o1,-6.33%
18,COc1ccc(-c2cc(-c3nc(CN4CCN(C)CC4)no3)[nH]n2)cc1,-5.68%
19,Cc1nonc1C(=O)N1CC[C@@]2(O)CCN(C3CCCCC3)C[C@H]2C1,-9.95%
20,CCN1CC(C(=O)NCc2nc(C3CCCCC3)no2)CC1=O (stereo not given),5.22%
21,O=C(Nc1ccccc1OCCc1ccccn1)N1CC[C@@H](O)C1,-31%
22,CC(C)n1ccnc1C1CCCN(c2cc(C(=O)NC3CC3)ccn2)C1 (stereo not given),12.2%

row,Structure (SMILES),cytotoxicity at 70.5 h
1,CC(C)c1nc(-c2ccc(=O)[nH]n2)n(-c2ccc3c(c2)OCO3)n1,-10.3%
2,CNc1ncc(C(=O)N2CCC(c3ccccc3C(=O)O)C2)cn1 (stereo not given),-5.85%
3,CC(C)(C)SCCN1CC(=O)N2CC[C@@H](O)C[C@H]2C1=O,-9.74%
4,CC(c1ccc(-c2cnc(N)nc2)cc1)N1CCOCC1 (stereo not given),-3.76%
5,CN(C)C(=O)CN1CCN(c2ncccn2)[C@@H]2CS(=O)(=O)C[C@@H]21,-3.2%
6,Cc1ccc(C)c(NC(=O)N2CCC3(CC2)NC(=O)CC3C(=O)O)c1 (stereo not given),-2.48%
7,Cc1ccc(Oc2ncccc2CNC2CCCCC2)cn1,-5.62%
8,Cc1cc(C)n(CC(C)NCCN2CCc3ccccc32)n1 (stereo not given),-3.59%
9,CN(Cc1cc(C(C)(C)C)n[nH]1)C(=O)c1cn2ccsc2n1,-2.6%
10,CCN(Cc1ccc(C)o1)C(=O)C(C)n1ccnc1C(C)C (stereo not given),-16.9%
11,O=C1CN(CCCNS(=O)(=O)c2cccc(C(=O)NC3CC3)c2)CCN1,-5.93%
12,CCc1nc2c(c(N3CCOCC3)n1)CCN(C(=O)N1CCCC1)CC2,-6.31%
13,CCCN1CCC(CC(=O)N[C@H](C(=O)O)c2cccc(F)c2F)CC1,-8.2%
14,O=C(NCC(F)(F)C(F)F)c1cccnc1,-3.25%
15,CN(C)C(=O)c1nc(CN2C(=O)OC[C@@H]2c2ccccc2)no1,15.9%
16,Cc1cccnc1N1CCN(C(=O)CCc2ccccn2)CC1,20.1%
17,Cc1nc(C(=O)N2CCC(c3nccn3Cc3ccncc3)CC2)cs1,-5.72%
18,CCc1cc(NCc2cc3n(n2)CCCN(S(C)(=O)=O)C3)nc(C)n1,-6.87%
19,COc1ccc(F)cc1C(C(=O)O)N1CCCN(C2CCCC2)CC1 (stereo not given),-5.48%
20,COc1ccnc(CNc2nc(C)nc3ccsc23)c1,3.18%
21,CC(C)c1ocnc1C(=O)NC(c1nnc2n1CCNCC2)C(C)C (stereo not given),-16.6%
22,Cn1ncc2c(N3CCC(CCO)CC3)nc(C(C)(C)C)nc21,-2.67%

row,Structure (SMILES),cytotoxicity at 70.5 h
1,CSc1ccccc1C(C(=O)O)N(C)CC1CCOCC1 (stereo not given),3.4%
2,Cc1cnc2c(C(=O)N3CCCC(OCc4ccccn4)C3)cnn2c1 (stereo not given),-7.53%
3,CC1CCCN1Cc1ccccc1-c1nc(C(C)(C)C)cc(=O)[nH]1 (stereo not given),31.4%
4,Cc1cc(N(C)Cc2cc(C(C)(C)C)n[nH]2)nc(-c2cccnc2)n1,41.6%
5,O=C1CCCN1CCCNCc1cc(O)c2cccc(Cl)c2n1,21%
6,O=C(C(O)c1ccccc1Cl)N1CCCN(Cc2cccnc2)CC1 (stereo not given),-4.87%
7,O=C(O)c1cccnc1CN1CCCC1CCc1ccccc1 (stereo not given),-14.9%
8,Cc1cc(C)cc(CN2CCN(Cc3cccc(CCN)c3)CC2=O)c1,-10.8%
9,CCOc1ccc(Cl)cc1C(C(=O)O)N1CCC(CO)CC1 (stereo not given),0.285%
10,Cc1c[nH]c(CN2CCOC(c3ccc(Cl)c(Cl)c3)C2)c(C)c1=O (stereo not given),5.88%
11,O=C1CCCN1CCC1CCN(C2CCCNC2)CC1 (stereo not given),-1.85%
12,COc1ccc(NC(=O)N2CCOCC(CN(C)C)C2)c(C)c1 (stereo not given),17.5%
13,CN(Cc1ccno1)c1nc(C2CCCC2)nc2c1cnn2C,-2.09%
14,CCn1ncc2[nH]c(-c3ccc(OC)c(COC)c3)nc21,-6.61%
15,CCCN(CCO)C(=O)C1CCC(=O)N(Cc2ccc(Cl)cc2)C1 (stereo not given),-0.953%
16,Cc1nc(N)nc(C)c1CC(=O)N1CCCCC1c1cccc(F)c1 (stereo not given),-8.87%
17,O=C(C1CC2(CCNCC2)CN1)N1CCN(c2ccccc2)CC1 (stereo not given),14.5%
18,CC(=O)N1CCc2[nH]cnc2C12CCN(CC1CCOC1)CC2 (stereo not given),-5.5%
19,Cn1cnnc1SCC(=O)N1C[C@H]2CC[C@@H]1CN(Cc1cccnc1)C2,-3.64%
20,CCCc1cc(C(=O)N2CCC3(CCCNC3=O)C2)cs1 (stereo not given),-0.581%
21,O=C(c1cccnc1O)N1CCOC(Cc2cccc(C(F)(F)F)c2)C1 (stereo not given),-7%
22,O=C(Cc1cccs1)N1CCCC(CNS(=O)(=O)Cc2ccccc2)C1 (stereo not given),-5.58%

row,Structure (SMILES),cytotoxicity at 70.5 h
1,COc1ccccc1OCc1cc(C(=O)N2[C@H](C)CC[C@@H]2C)n[nH]1,-6.18%
2,CCS(=O)(=O)N1CCCC(c2nccn2Cc2cccnc2)C1 (stereo not given),-7.4%
3,O=C(Cc1cccnc1)N1C[C@@H]2CC[C@H](C1)N(Cc1ccccc1)C2=O,-7.37%
4,CCc1nc2c(c(NCc3cc(-c4cccnc4)no3)n1)CCNCC2,7.07%
5,O=C(O)Cc1cccc(-n2ccnc2-c2ccc(Cl)s2)c1,-4.96%
6,CC(=O)Nc1ccc(CNC(=O)CNCc2snnc2C)cc1,15.4%
7,COCC1(CNc2cc(C(C)C)nc(N)n2)CC1,2.2%
8,COc1ccc(CCN2CCCC(CN(C)Cc3[nH]cnc3C)C2)cc1 (stereo not given),1.62%
9,CN(CC1CCCCO1)S(=O)(=O)c1cccc(C(=O)N2CCOCC2)c1 (stereo not given),-10.5%
10,C=C(C)COc1ccccc1CN1CCC(NC(C)=O)CC1,25.2%
11,Cc1nn(C)c(C)c1-c1ccnc(N(C)Cc2nc(C(C)C)no2)n1,3.94%
12,CNc1nc(N2CCN(C3CCCCC3)C(CCO)C2)nc2c1CCC2 (stereo not given),-3.63%
13,CCN(Cc1ccncc1)c1nc(C)nc2oc(C)nc12,-5.52%
14,CCc1n[nH]c(C(=O)N2CCN(c3ccc4ccccc4c3)CC2)c1C,-6.66%
15,CCc1[nH]c2c(CNc3cncc(C(=O)N(C)C)n3)cc(F)cc2c1C,4.01%
16,COc1ccc(Cc2ncc3c(n2)CN(C(=O)C2COCCO2)C3)cc1 (stereo not given),-3.32%
17,CC(C)=CCN1C[C@H]2CC[C@@H]1CN(S(=O)(=O)c1cccnc1)C2,6.15%
18,CCn1ccnc1CN(C)c1cc(C2CC2)ncn1,-5.12%
19,N[C@H]1CN(C(=O)c2ccccc2Oc2ccccc2)C[C@@H]1C1CC1,-9.43%
20,CCN1CCC(CC(=O)NCCc2nc(C)c(Cl)s2)CC1,-6.45%
21,CCN(CC)C(=O)C1CCCN(CC(=O)Nc2c(C)nn(CC)c2C)C1 (stereo not given),22.3%
22,CCCNc1ncc(CN2CCC3(CCNC(=O)CC3)CC2)cn1,-3.92%
